Source: patent publication US20050059726A1, “Pyrrolidine-2-ones as factor xa inhibitors” (priority 2001, published 2005)
Counter-ions that a name gives are not always drawn.

Target: human Factor Xa (Homo sapiens, UniProt P00742)
Experiment: In vitro assay for inhibition of Factor Xa (2), fluorogenic assay
Type: biochemical
Settings: substrate Rhodamine 110, bis-(CBZ-glycylglycyl-L-arginine amide 10 μM), Ki calculated from IC50
Method: In Vitro Assay for Inhibition of Factor Xa (2)
All other compounds of the present invention were tested for their Factor Xa inhibitory activity as determined in vitro by their ability to inhibit human Factor Xa in a fluorogenic assay, using Rhodamine 110, bis-(CBZ-glycylglycyl-L-arginine amide as the fluorogenic substrate. Compounds were diluted from a 10 mM stock solution in dimethylsulfoxide at appropriate concentrations. Assay was performed at room temperature using buffer consisting of: 50 mM Tris-HCl, 150 mM NaCl, 5 mM CaCl2, pH 7.4. containing human Factor Xa (final conc. Of 0.0003U.ml−1). Compound and enzyme were preincubated for 15 min prior to addition of the substrate (final conc. of 10 μM). The reaction was stopped after 3 hrs with the addition of H-D-PHE-PRO-ARG-Chloromethylketone. […] To obtain IC50 values the data were analysed using ActivityBase® and XLfit®.
Calculation of Ki values:
Ki=IC50/(1+[Substrate]/Km)
The Ki value for the above assay can be obtained by dividing the IC50 value by 1.6.

Sequence of human Factor Xa (P00742 235-488 limits assumed): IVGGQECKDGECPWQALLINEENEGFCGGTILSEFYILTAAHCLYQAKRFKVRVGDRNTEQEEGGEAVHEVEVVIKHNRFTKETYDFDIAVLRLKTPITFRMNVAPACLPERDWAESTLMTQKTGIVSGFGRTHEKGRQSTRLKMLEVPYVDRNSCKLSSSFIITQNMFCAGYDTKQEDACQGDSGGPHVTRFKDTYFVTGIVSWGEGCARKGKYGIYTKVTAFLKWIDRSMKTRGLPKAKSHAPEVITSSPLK
Sequence of human Factor Xa (P00742 41-179 partner limits assumed): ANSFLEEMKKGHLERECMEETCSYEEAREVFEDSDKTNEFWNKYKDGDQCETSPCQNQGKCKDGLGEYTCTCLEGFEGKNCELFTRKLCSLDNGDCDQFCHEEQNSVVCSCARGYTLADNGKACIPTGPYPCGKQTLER

Compound	Ki
Cc1cn(-c2ccc(N3CC[C@H](NS(=O)(=O)c4ccc5cc(Cl)ccc5c4)C3=O)c(F)c2)cn1 [Example 128, 6-Chloro-N-{(3S)-1-[2-fluoro-4-(4-methyl-1H-imidazol-1-yl)phenyl]-2-oxopyrrolidinyl}-2-naphthalenesulfonamide]	< 10 nM
CS(=O)(=O)c1ccccc1-c1ccc(N2CC[C@H](NS(=O)(=O)c3cccc4cnccc34)C2=O)c(F)c1 [Example 6, N-{(3S)-1-[3-Fluoro-2′-(methylsulfonyl)-1,1′-biphenyl-4-yl]-2-oxopyrrolidin-3-yl}isoquinoline-5-sulfonamide]	< 1000 nM
CS(=O)(=O)c1ccccc1-c1ccc(N2CC[C@H](NS(=O)(=O)c3ccc(-c4ccc(Cl)s4)s3)C2=O)c(F)c1 [Example 8, 5′-Chloro-N-{(3S)-1-[3-fluoro-2′-(methylsulfonyl)-1,1′-biphenyl-4-yl]-2-oxopyrrolidin-3-yl}-2,2′-bithiophene-5-sulfonamide]	< 10 nM
C/C(=C\S(=O)(=O)N[C@H]1CCN(c2ccc(-c3ccccc3S(N)(=O)=O)cc2F)C1=O)c1ccc(Cl)s1 [Example 16, 4′-[(3S)-3-({[(1E)-2-(5-Chlorothien-2-yl)prop-1-enyl]sulfonyl}amino)-2-oxopyrrolidin-1-yl]-3′-fluoro-1,1′-biphenyl-2-sulfonamide]	< 10 nM
CS(=O)(=O)c1ccccc1-c1ccc(N2CC[C@H](N(CC(N)=O)S(=O)(=O)/C=C/c3ccc(Cl)s3)C2=O)nc1 [Example 43, 2-[{[(E)-2-(5-Chlorothien-2-yl)ethenyl]sulfonyl}((3S)-1-{5-[2-(methylsulfonyl)phenyl]pyridin-2-yl}-2-oxopyrrolidin-3-yl)amino]acetamide]	< 10 nM
O=C1[C@@H](NS(=O)(=O)/C=C/c2ccc(Cl)s2)CCN1c1ccc(-c2ccccc2[N+](=O)[O-])cn1 [Example 17, (E)-2-(5-Chlorothien-2-yl)-N-{(3S)-1-[5-(2-nitrophenyl)pyridin-2-yl]-2-oxopyrrolidin-3-yl}ethenesulfonamide]	< 10 nM
N#Cc1ccc(N2CC[C@H](NS(=O)(=O)/C=C/c3ccc(Cl)s3)C2=O)c(F)c1 [Example 98, (E)-2-(5-Chlorothien-2-yl)-N-[(3S)-1-(4-cyano-2-fluorophenyl)-2-oxopyrrolidin-3-yl]ethenesulfonamide]	< 200 nM
N#Cc1ncccc1-c1ccc(N2CC[C@H](NS(=O)(=O)c3ccc4cc(Cl)ccc4c3)C2=O)c(F)c1 [Example 79, 6-Chloro-N-{(3S)-1-[4-(2-cyanopyridin-3-yl)-2-fluorophenyl-]-2-oxopyrrolidin-3-yl}naphthalene-2-sulfonamide]	< 10 nM
O=C1[C@H](NS(=O)(=O)c2cc3ccc(Cl)cc3s2)CCN1c1ccc([N+](=O)[O-])cc1F [Example 94, 6-Chloro-N-[(3R)-1-(2-fluoro-4-nitrophenyl)-2-oxopyrrolidinyl]-1-benzothiophene-2-sulfonamide]	< 200 nM
N#Cc1ccccc1-c1ccc(N2CC[C@H](NS(=O)(=O)/C=C/c3ccc(Cl)s3)C2=O)nc1 [Example 26, (E)-2-(5-Chlorothien-2-yl)-N-{(3S)-1-[5-(2-cyanophenyl)pyridin-2yl]-2-oxopyrrolidin-3-yl}ethenesulfonamide]	< 10 nM
CCC(=O)Nc1ccc(N2CC[C@H](NS(=O)(=O)c3cc4ccc(Cl)cc4s3)C2=O)c(F)c1 [Example 118, N-[4-((3S)-3-{[(6-Chloro-1-benzothien-2-yl)sulfonyl]amino}-2-oxopyrrolidinyl)-3-fluorophenyl]propanamide]	< 1000 nM
CC(O)c1ccc(N2CC[C@H](NS(=O)(=O)/C=C/c3ccc(Cl)s3)C2=O)c(F)c1 (stereo partly drawn) [Example 135, (E)-2-(5-Chlorothien-2-yl)-N-{(3S)-1-[2-fluoro-4-(1-hydroxyethyl)phenyl]-2-oxopyrrolidin-3-yl}ethenesulfonamide]	< 200 nM
O=C1[C@@H](NS(=O)(=O)c2ccc3cc(Cl)ccc3c2)CCN1c1ccc(-n2cccn2)cc1F [Example 129, 6-Chloro-N-{(3S)-1-[2-fluoro-4-(1H-pyrazol-1-yl)phenyl]-2-oxopyrrolidinyl}-2-naphthalenesulfonamide]	< 10 nM

Results, then the compound that gave them:

Ki	Compound
< 10 nM	NC(=O)CN([C@H]1CCN(c2ccc(-c3ccccc3S(N)(=O)=O)cc2F)C1=O)S(=O)(=O)c1cc2ccc(Cl)cc2s1 [Example 140, 2-{(6-Chloro-benzo[b]thiophene-2-sulphonyl)-[(S)-1-(3-fluoro-2′-sulfamoyl-biphenyl-4-yl)-2-oxo-pyrrolidin-3-yl]-amino}-acetamide Formate]
< 200 nM	O=C1[C@@H](NS(=O)(=O)c2ccc3cc(Cl)ccc3c2)CCN1c1ccc(-c2ccccc2)cc1F [Example 74, 6-Chloro-N-[(3S)-1-(3-fluoro-1,1′-biphenyl-4-yl)-2-oxopyrrolidin-3-yl]naphthalene-2-sulfonamide]
< 10 nM	CS(=O)(=O)c1ccccc1-c1ccc(N2CC[C@H](N(CC(=O)O)S(=O)(=O)/C=C/c3ccc(Cl)s3)C2=O)c(F)c1 [Example 49]
< 20 nM	CN(C)C(=O)c1ccccc1-c1ccc(N2CC[C@H](NS(=O)(=O)/C=C/c3ccc(Cl)s3)C2=O)nc1 [Example 25, 2-{6-[(3S)-3-({[(E)-2-(5-Chlorothien-2-yl)ethenyl]sulfonyl}amino)-2-oxopyrrolidin-1-yl]pyridin-3-yl}-N,N-dimethylbenzamide]
< 1000 nM	CC(=O)Nc1ccc(N2CC[C@H](NS(=O)(=O)c3cc4ccc(Cl)cc4s3)C2=O)c(F)c1 [Example 117, N-[4-((3S)-3-{[(6-Chloro-1-benzothien-2-yl)sulfonyl]amino}-2-oxopyrrolidinyl)-3-fluorophenyl]acetamide]
< 200 nM	Cc1ccc(-c2ccc(N3CC[C@H](NS(=O)(=O)c4ccc5cc(Cl)ccc5c4)C3=O)c(F)c2)s1 [Example 68, 6-Chloro-N-{(3S)-1-[2-fluoro-4-(5-methylthien-2-yl)phenyl]-2-oxopyrrolidin-3-yl}naphthalene-2-sulfonamide]
< 10 nM	O=C1[C@@H](NS(=O)(=O)c2ccc(-c3ccc(Cl)s3)s2)CCN1c1ccc(I)cc1F [Example 92, 5′-Chloro-N-[(3S)-1-(2-fluoro-4-iodophenyl)-2-oxopyrrolidin-3-yl]-2,2′-bithiophene-5-sulfonamide]
< 1000 nM	O=C1[C@@H](NS(=O)(=O)c2ccc3cc(Cl)ccc3c2)CCN1c1ccccc1F [Example 101, 6-Chloro-N-[(3S)-1-(2-fluorophenyl)-2-oxopyrrolidin-3-yl]naphthalene-2-sulfonamide]
< 1000 nM	CN(C)c1ccc2cc(S(=O)(=O)N[C@H]3CCN(c4ccc(-c5ccccc5S(C)(=O)=O)cc4F)C3=O)ccc2c1 [Example 9, 6-(Dimethylamino)-N-{(3S)-1-[3-fluoro-2′-(methylsulfonyl)-1,1′-biphenyl-4-yl]-2-oxopyrrolidin-3-yl}naphthalene-2-sulfonamide]
< 10 nM	C/C(=C\S(=O)(=O)N[C@H]1CCN(c2ccc(-c3ccccc3S(C)(=O)=O)cc2F)C1=O)c1ccc(Cl)s1 [Example 39, (1E)-2-(5-Chlorothien-2-yl)-N-{(3S)-1-[3-fluoro-2′-(methylsulfonyl)-1,1′-biphenyl-4yl]-2-oxopyrrolidin-3-yl}prop-1-ene-1-sulfonamide]
< 10 nM	N#Cc1ccc(N2CC[C@H](NS(=O)(=O)c3cc4ccc(Cl)cc4s3)C2=O)c(F)c1 [Example 97, 6-Chloro-N-[(3S)-1-(4-cyano-2-fluorophenyl)-2-oxopyrrolidin-3-yl]-1-benzothiophene-2-sulfonamide]
